# Calls of active or inactive are those of the source.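 Rule for the calls: active = AC50, the dose giving half-maximal effect, exceeds a fixed cutoff for a compound that rescues yeast growth under heat; inactive = the rest, inconclusive results apart.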
# Tested on: S. cerevisiae Burl-1 ts mutant growth, BacTiter-Glo, 38.5C 24 h
# Experiment: growth induction of Burl-1 ts yeast mutant, dose response, counter-screen for SUMOylation pathway inhibitor project, whole organism, S. cerevisiae, luminescence (AID 463199)
row,SMILES,AC50
1,O=C(O)CC(NC(=O)c1ccc2c(c1)OCO2)c1cccc([N+](=O)[O-])c1 (centres undefined),> 42 µM (inactive)
2,O=[N+]([O-])c1ccc(-c2csc(N3CCc4ccccc4C3)n2)cc1,> 42 µM (inactive)
3,S=c1[nH]nc(-c2ccco2)n1-c1ccc(Br)cc1,> 42 µM (inactive)
4,Oc1c(Cl)cc(Cl)cc1/C=N/c1nc(-c2ccc(Cl)cc2)cs1,> 42 µM (inactive)
5,CCCCCC(=O)Nc1ccc(-c2csc(N)n2)cc1,> 42 µM (inactive)
6,CCCOc1ccccc1C1NC(=O)NC(C)=C1C(=O)OCCOCC (centres undefined),> 42 µM (inactive)
7,O=C(OCc1nnc(-c2ccccc2)o1)c1ccc([N+](=O)[O-])o1,> 42 µM (inactive)
8,CCCCCCCN1C(Nc2ccccc2)=NC[C@@H]1CC(C)C,> 21 µM (inactive)
9,CSc1ncccc1C(=O)NC1CCCc2c1cnn2-c1ccc(C)c(C)c1 (centres undefined),> 42 µM (inactive)
10,O=C1CN(C(=O)COC(=O)c2cccc(S(=O)(=O)NCc3ccccc3)c2)c2ccccc2N1,> 42 µM (inactive)
11,C/C(=N/Nc1ccc(F)cc1)c1ccc(Cl)s1,> 42 µM (inactive)
12,O=C(COc1ccc(Cl)cc1)NCCCNC(=O)c1ccccn1,> 42 µM (inactive)
13,COc1ccccc1C(=O)NCCNc1ccc([N+](=O)[O-])cc1Cl,> 42 µM (inactive)
14,CCOC(=O)N1CCN(C(=O)c2ccc3ccccc3c2)CC1,> 42 µM (inactive)
15,CCOC(=O)c1ccc(NC(=S)NCCCN2CCOCC2)cc1,> 42 µM (inactive)
16,O=S1(=O)NC(c2ccccc2)CC(CC2CCCCC2)O1 (centres undefined),> 42 µM (inactive)
17,O=C(OCC(=O)N1CCN(c2ccccc2)CC1)c1nc(Cl)ccc1Cl,> 42 µM (inactive)
18,C[C@H]1O[C@H]1P(=O)(O)O,> 42 µM (inactive)
19,CCN(CC)S(=O)(=O)c1ccc(NC(=O)C(C)N(c2ccccc2)S(C)(=O)=O)cc1 (centres undefined),> 42 µM (inactive)
20,CC(=O)N1CCc2cc(S(=O)(=O)CCC(=O)N3CCN(C(=O)c4ccco4)CC3)ccc21,> 42 µM (inactive)
21,CSc1nncc(/C(C)=N\Nc2cccc(C)c2)n1,> 42 µM (inactive)
22,COc1ccc(S(=O)(=O)N2CCCC2CNC(=O)C(=O)NCc2ccccn2)cc1 (centres undefined),> 42 µM (inactive)
23,COCCCN1C(=O)c2ccc(C(=O)Nc3ccc(OC)cc3OC)cc2C1=O,> 42 µM (inactive)
24,O=C(Nc1nccs1)C1CCN(S(=O)(=O)c2ccc(Cl)c(C(F)(F)F)c2)CC1,> 42 µM (inactive)
25,Cn1c(SCC(=O)Nc2ccc(N3CCOCC3)c(Cl)c2)nnc1-c1ccccc1,> 42 µM (inactive)

row,SMILES,AC50
1,COC(=O)c1sccc1NC(=O)CC1C(=O)NCCN1C(=O)Nc1ccc(F)cc1F (centres undefined),> 42 µM (inactive)
2,CCn1c(SCC(=O)Nc2ccc(OCc3ccccc3)cc2)nnc1-c1ccco1,> 42 µM (inactive)
3,Cc1c(Cl)cccc1NC(=S)NCCCN(C)C,> 42 µM (inactive)
4,COc1ccc(OC)c2c(N)c(C#N)c(C(F)(F)C(F)(F)F)nc12,> 42 µM (inactive)
5,Cc1ccc(/C=C2\SC(N3CCCC3)=NC2=O)cc1,> 42 µM (inactive)
6,CCn1c(SCC(=O)Nc2ccc(NC(=O)c3ccco3)cc2)nnc1-c1cccs1,> 42 µM (inactive)
7,COc1cccc(NC(=O)CN(C)C(=O)c2ccccc2OCc2c(C)noc2C)c1,> 42 µM (inactive)
8,Clc1ccccc1-c1ccc2ncnc(NCc3cccs3)c2c1,> 42 µM (inactive)
9,O=C(O)CCC(=O)Nc1cccc(C(=O)Nc2ccc(Br)cc2)c1,> 42 µM (inactive)
10,CSc1cc(C)c(OCC(=O)Nc2c(C)nn(C)c2C)c(C)c1,> 42 µM (inactive)
11,COc1cc(S(=O)(=O)N2CCN(c3ccccc3)CC2)ccc1F,> 42 µM (inactive)
12,CC1(C)Cc2nc3sc4c(OCc5ccccc5)ncnc4c3cc2CO1,> 42 µM (inactive)
13,O=C(N/N=C/c1ccccn1)NC12CC3CC(CC(C3)C1)C2,> 42 µM (inactive)
14,O=C(Nc1ccc2c(c1)CCCN2C(=O)c1cccs1)c1cccc(F)c1,> 42 µM (inactive)
15,O=C(CCc1ccccc1)NNC(=O)c1ccc(Br)cc1,> 42 µM (inactive)
16,CC1CCN(CCCOc2ccc(OCc3ccccc3)cc2)CC1,> 42 µM (inactive)
17,Cc1nc2nc[nH]n2c(=O)c1NS(=O)(=O)c1ccc([N+](=O)[O-])cc1,> 42 µM (inactive)
18,Cc1cccn2c(=O)c3cc(C(=O)NCc4cccnc4)c(=N)n(C(C)C)c3nc12,> 42 µM (inactive)
19,COc1ccc(-c2oc3ccc(-c4cc(OC)c(OC)c(OC)c4)cc3c2C(=O)c2ccc(OC)nc2)cc1,> 42 µM (inactive)
20,CCCCc1n[nH]c(=S)n1Cc1ccc(C)cc1,> 42 µM (inactive)
21,Cc1ccc(S(=O)(=O)N2[C@@H](c3ccccc3)C(C(=O)O)=CC[C@H]2c2ccc(Cl)cc2)cc1,> 42 µM (inactive)
22,O=C(CCS(=O)(=O)c1ccc(Br)s1)NCc1ccccc1,> 42 µM (inactive)
23,COc1ccc(NC(=O)C(c2ccccc2)N2CCN(c3ccccn3)CC2)cc1Cl (centres undefined),> 42 µM (inactive)
24,C[C@@]12C(=O)Nc3ccc(F)cc3C(=O)N1[C@H]1c3cc(Cl)ccc3OC[C@@H]1[C@@H]2c1ccccc1,> 42 µM (inactive)
